Measurements from patent publication US20260035376A1, “COMPOSITIONS AND METHODS FOR INHIBITION OF RAS” (TheRas, Inc., priority 2022, published 2026).

Legend:
[1] = system: KRAS G12D protein/effector signaling in GP2d cells; experiment: Cell-based pERK HTRF assay in GP2d cell; conditions: 60 min incubation
Protocol: A pERK assay (Perkin Elmer) was used to determine the effectiveness of compounds in disrupting KRAS G12D protein/effector signaling in cells.
On Day 1, cells (GP2d) were seeded into 96-well plates at 3×10^4 cells/well in 80 μL complete growth media (DMEM, 10% FBS).
On Day 2, cells were treated with compounds at 0.25% DMSO. The source plate was created with compounds diluted in media at 5-fold the final assay concentration. The compounds were run in a 9-point concentration curve starting at […], with a half-log dilution between concentrations. 20 μL was transferred onto the cell plates (final volume in wells was 100 μL). Plates were harvested after 60 min incubation by aspirating media and adding kit-supplied 1× supplemented lysis buffer to all wells (50 μL per well). Plates were then placed on a plate shaker and incubated at 850 rpm for an additional 30 min.
Antibody mixture solution was prepared by diluting aliquoted d2 and Eu Cryptate antibodies 1:20 in kit supplied detection buffer, and mixing the diluted antibodies solutions (1:1 v:v). 4 μL of this solution was then added to a 384-well detection plate (Perkin Elmer; 6008230).
Samples were homogenized by pipetting up and down and then transferred (16 μL of cell lysates) from the 96-well cell culture plate to two wells of the HTRF 384-well detection plate containing the antibody solution. Plates were centrifuged (524 g for 1 min) and allowed to incubate between 4 and 24 h at room temperature. Maximum signal was reached after 4 h incubation time and remained stable over a period of 24 hours. Therefore, readings could be made between 4 and 24 h of incubation. Plates were centrifuged again (524 g for 1 min), then analyzed on the EnVision plate reader using the following settings: Excitation 320 nm, Bandwidth 75 nm; Emission 615 nm, Bandwidth 85 nm; Gain 100%; Flashes 100; Lag 60 μs.

[2] = biological target: T1, Avi-KRAS WT (1-169) GppNHp/RAF1 RBD-3×FLAG (52-151) (Homo sapiens, UniProt P01116); experiment: Disrupting RAS-effector binding HTRF assay, Raf1 RBD-KRAS WT-GppNHp; conditions: PPI HTRF, 50 nM Avi-KRAS WT GppNHp, compound titration 30-0.0045 μM; read-out: Raf1 RBD-KRAS WT-GppNHp disruption
T1 construct: 50 nM Avi-KRAS WT (1-169) GppNHp/RAF1 RBD-3×FLAG (52-151)
T1 sequence (P01116 1-169 isoform P01116-2 limits assumed): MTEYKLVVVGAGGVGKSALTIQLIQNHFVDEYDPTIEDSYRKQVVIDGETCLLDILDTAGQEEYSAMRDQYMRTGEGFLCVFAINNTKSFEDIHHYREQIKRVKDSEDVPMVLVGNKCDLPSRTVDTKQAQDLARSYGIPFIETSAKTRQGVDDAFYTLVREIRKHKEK
Protocol: (§1) A protein:protein interaction (PPI) Homogeneous Time Resolved Fluorescence (HTRF) assay was used to determine the effectiveness of compounds of the present disclosure in disrupting KRAS protein and effector RAF1 binding.
(§2) The HTRF assay used the following reagents and proteins: (i) 50 nM Avi-KRAS G12D (1-169) GppNHp/RAF1 RBD-3×FLAG (52-151); (ii) 50 nM Avi-KRAS G12R (1-169) GppNHp/RAF1 RBD-3×FLAG (52-151); (iii) 50 nM Avi-KRAS G12V (1-169) GppNHp/RAF1 RBD-3×FLAG (52-151), (iv) 50 nM Avi-KRAS WT (1-169) GppNHp/RAF1 RBD-3×FLAG (52-151); and (v) 75 nM Avi-RAF1 RBD-3×FLAG. The assay buffer included: 50 mM Tris pH 7.5, 100 mM NaCl, 5 mM MgCl2, 0.1% BSA, […], 10% DMSO. The bead buffer included: 50 mM Tris pH 7.5, 0.01% o Tween 20. Assay volume of 20 μL was used in a 384 well plate-low volume format. Compound titration: 30-0.0045 μM, 3× dilution series.
(§3) The HTRF assay employed the following protocol:
(§4) Compounds were dispensed in assay plate (384-well, Grenier Bione #784075) using Echo (model 555) with dose response settings: 200 nL final volume, titration from 30 μM as a 10-point dilution series. Protein mix was prepared in assay buffer, and dispensed on plates, 10 μL per well, then incubated for 1 h at room temperature, with 700 rpm shaking. Reagents mix was prepared and dispensed on plates, 10 μL per well, then incubated for 1 h at room temperature, with 700 rpm shaking.
(§5) Plates were analyzed on an Envision plate reader using the following setting: Excitation 320 nm, Bandwidth 75 nM; Emission 615 nm, Bandwidth 85 nM, Gain 100%, Flashes 100, Lag 60 μs. Data were reported as percentage of activity, with DMSO as 100%. Data were plotted and analyzed using Prism 8.
(§6) The biochemical Raf1-KRAS G12D/G12R/G12V/WT-GppNHP disruption assay IC50 of selected compounds described herein are shown in Table 4.

[3] = biological target: T2, Avi-KRAS G12V (1-169) GppNHp/RAF1 RBD-3×FLAG (52-151) (Homo sapiens, UniProt P01116, G12V); experiment: Disrupting RAS-effector binding HTRF assay, Raf1 RBD-KRAS G12V-GppNHp; conditions: PPI HTRF, 50 nM Avi-KRAS G12V GppNHp, compound titration 30-0.0045 μM; read-out: Raf1 RBD-KRAS G12V-GppNHp disruption
T2 construct: 50 nM Avi-KRAS G12V (1-169) GppNHp/RAF1 RBD-3×FLAG (52-151)
T2 sequence (P01116 1-169 isoform P01116-2 G12V limits assumed): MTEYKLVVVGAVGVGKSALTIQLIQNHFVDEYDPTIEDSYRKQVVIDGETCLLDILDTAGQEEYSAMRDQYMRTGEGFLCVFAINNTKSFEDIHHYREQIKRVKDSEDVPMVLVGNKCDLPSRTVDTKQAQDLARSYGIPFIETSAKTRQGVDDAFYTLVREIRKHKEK
Protocol: as §1, §2, §3, §4, §5, §6

[4] = biological target: T3, Avi-KRAS G12R (1-169) GppNHp/RAF1 RBD-3×FLAG (52-151) (Homo sapiens, UniProt P01116, G12R); experiment: Disrupting RAS-effector binding HTRF assay, Raf1 RBD-KRAS G12R-GppNHp; conditions: PPI HTRF, 50 nM Avi-KRAS G12R GppNHp, compound titration 30-0.0045 μM; read-out: Raf1 RBD-KRAS G12R-GppNHp disruption
T3 construct: 50 nM Avi-KRAS G12R (1-169) GppNHp/RAF1 RBD-3×FLAG (52-151)
T3 sequence (P01116 1-169 isoform P01116-2 G12R limits assumed): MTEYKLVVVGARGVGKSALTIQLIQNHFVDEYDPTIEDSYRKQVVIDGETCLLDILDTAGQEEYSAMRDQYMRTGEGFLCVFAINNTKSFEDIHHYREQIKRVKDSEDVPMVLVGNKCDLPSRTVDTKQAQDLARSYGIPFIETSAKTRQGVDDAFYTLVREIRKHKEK
Protocol: as §1, §2, §3, §4, §5, §6

[5] = biological target: T4, Avi-KRAS G12D (1-169) GppNHp/RAF1 RBD-3×FLAG (52-151) (Homo sapiens, UniProt P01116, G12D); experiment: Disrupting RAS-effector binding HTRF assay, Raf1 RBD-KRAS G12D-GppNHp; conditions: PPI HTRF, 50 nM Avi-KRAS G12D GppNHp, compound titration 30-0.0045 μM; read-out: Raf1 RBD-KRAS G12D-GppNHp disruption
T4 construct: 50 nM Avi-KRAS G12D (1-169) GppNHp/RAF1 RBD-3×FLAG (52-151)
T4 sequence (P01116 1-169 isoform P01116-2 G12D limits assumed): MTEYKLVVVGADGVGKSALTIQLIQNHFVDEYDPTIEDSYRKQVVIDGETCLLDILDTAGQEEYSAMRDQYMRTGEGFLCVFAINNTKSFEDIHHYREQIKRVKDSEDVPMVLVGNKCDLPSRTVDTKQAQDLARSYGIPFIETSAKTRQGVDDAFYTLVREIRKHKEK
Protocol: as §1, §2, §3, §4, §5, §6

| Compound | IC50 ([1]; 1 h) | IC50 [2] | IC50 [3] | IC50 [4] | IC50 [5] | IC50 [1] |
| --- | --- | --- | --- | --- | --- | --- |
| CN(C)c1nc(N2C[C@H]3CC[C@@H](C2)N3)c2cc(C(F)(F)F)c(-c3ccc(F)c4sc(N)c(C#N)c34)c(F)c2n1 [Compound 10, 4-(4-((1R,5S)-3,8-diazabicyclo[3.2.1]octan-3-yl)-2-(dimethylamino)-8-fluoro-6-(trifluoromethyl)quinazolin-7-yl)-2-amino-7-fluorobenzo[b]thiophene-3-carbonitrile] | > 1 µM | > 10 µM | > 10 µM | > 10 µM | 1 to 10 µM |  |
| N#Cc1c(N)sc2c(F)ccc(-c3c(C(F)(F)F)cc4c(N5CC6CCC(C5)N6)nc(N5CCCC5)nc4c3F)c12 [Compound 20] | 0.1 to 1 µM | 1 to 10 µM | > 10 µM | > 10 µM | 1 to 10 µM |  |
| CCCOc1nc(N2CC3CCC(C2)N3)c2cc(C(F)(F)F)c(-c3ccc(F)c4sc(N)c(C#N)c34)c(F)c2n1 [Compound 3] | 0.1 to 1 µM | 1 to 10 µM | > 10 µM | > 10 µM | 1 to 10 µM |  |
| CN(C(=O)c1cnn(C)c1)c1nc(N2CC3CCC(C2)N3)c2cc(C(F)(F)F)c(-c3ccc(F)c4sc(N)c(C#N)c34)c(F)c2n1 [Compound 27] | 0.1 to 1 µM | 1 to 10 µM | > 10 µM | > 10 µM | > 10 µM |  |
| N#Cc1c(N)sc2c(F)ccc(-c3c(C(F)(F)F)cc4c(N5CC6CCC(C5)N6)nc(OCCc5cn[nH]c5)nc4c3F)c12 [Compound 19] | ≤ 0.1 µM | 1 to 10 µM | > 10 µM | > 10 µM | 1 to 10 µM |  |
| COCCOc1nc(N2CC3CCC(C2)N3)c2cc(C(F)(F)F)c(-c3ccc(F)c4sc(N)c(C#N)c34)c(F)c2n1 [Compound 15] | ≤ 0.1 µM | 1 to 10 µM | > 10 µM | > 10 µM | 1 to 10 µM |  |
| COc1nc(N2C[C@@H](C)NC[C@@H]2C)c2cc(C(F)(F)F)c(-c3ccc(F)c4sc(N)c(C#N)c34)c(F)c2n1 [Compound 60] | > 1 µM | > 10 µM | > 10 µM | > 10 µM | > 10 µM |  |
| Cc1nc(N2C[C@H]3CC[C@@H](C2)N3)c2cc(C(F)(F)F)c(-c3ccc(F)c4sc(N)c(C#N)c34)c(F)c2n1 [Compound 22, 4-(4-((1R,5S)-3,8-diazabicyclo[3.2.1]octan-3-yl)-8-fluoro-2-methyl-6-(trifluoromethyl)quinazolin-7-yl)-2-amino-7-fluorobenzo[b]thiophene-3-carbonitrile] | ≤ 0.1 µM | 1 to 10 µM | > 10 µM | > 10 µM | 1 to 10 µM |  |
| N#Cc1c(N)sc2c(F)ccc(-c3c(C(F)(F)F)cc4c(N5CC6CCC(C5)N6)nc(N5CCC5)nc4c3F)c12 [Compound 14] | 0.1 to 1 µM | 1 to 10 µM | > 10 µM | > 10 µM | 1 to 10 µM |  |
| N#Cc1c(N)sc2c(F)ccc(-c3c(C(F)(F)F)cc4c(N5CC6CCC(C5)N6)nc(OCCc5ccccc5)nc4c3F)c12 [Compound 13] | 0.1 to 1 µM | > 10 µM | > 10 µM | > 10 µM | 1 to 10 µM |  |
| CC(=O)N(C)c1nc(N2C[C@H]3CC[C@@H](C2)N3)c2cc(C(F)(F)F)c(-c3ccc(F)c4sc(N)c(C#N)c34)c(F)c2n1 [Compound 21, N-(7-(2-amino-3-cyano-7-fluorobenzo[b]thiophen-4-yl)-4-((1R,5S)-3,8-diazabicyclo[3.2.1]octan-3-yl)-8-fluoro-6-(trifluoromethyl)quinazolin-2-yl)-N-methylacetamide] | 0.1 to 1 µM | 1 to 10 µM | > 10 µM | > 10 µM | > 10 µM |  |
| N#Cc1c(N)sc2c(F)ccc(-c3c(C(F)(F)F)cc4c(N5CC6CCC(C5)N6)nc(OC5CC(O)C5)nc4c3F)c12 (stereo not shown) [Compound 11] | 0.1 to 1 µM | > 10 µM | > 10 µM | > 10 µM | 1 to 10 µM |  |
| N#Cc1c(N)sc2c(F)ccc(-c3c(C(F)(F)F)cc4c(N5CC6CCC(C5)N6)nc(OC5CC(O)C5)nc4c3F)c12 (stereo not shown) [Compound 12] |  | 1 to 10 µM | > 10 µM | > 10 µM | 1 to 10 µM | 0.1 to 1 µM |
| N#Cc1c(N)sc2c(F)ccc(-c3c(C(F)(F)F)cc4c(N5CC6CCC(C5)N6)nc(N5CC[C@H](O)C5)nc4c3F)c12 [Compound 4] | 0.1 to 1 µM | 1 to 10 µM | > 10 µM | > 10 µM | 1 to 10 µM |  |
| N#Cc1c(N)sc2c(F)ccc(-c3c(C(F)(F)F)cc4c(N5CC6CCC(C5)N6)nc(OCC5(O)CC5)nc4c3F)c12 [Compound 7] | 0.1 to 1 µM | > 10 µM | > 10 µM | > 10 µM | 1 to 10 µM |  |
| N#Cc1c(N)sc2c(F)ccc(-c3c(C(F)(F)F)cc4c(N5CC6CCC(C5)N6)nc(N5CC(O)C5)nc4c3F)c12 [Compound 16] | 0.1 to 1 µM | 1 to 10 µM | > 10 µM | > 10 µM | 1 to 10 µM |  |
| N#Cc1c(N)sc2c(F)ccc(-c3c(C(F)(F)F)cc4c(N5C[C@H]6CC[C@@H](C5)N6)ncnc4c3F)c12 [Compound 5, 4-(4-((1R,5S)-3,8-diazabicyclo[3.2.1]octan-3-yl)-8-fluoro-6-(trifluoromethyl)quinazolin-7-yl)-2-amino-7-fluorobenzo[b]thiophene-3-carbonitrile] | ≤ 0.1 µM | 1 to 10 µM | > 10 µM | > 10 µM | 1 to 10 µM |  |
| N#Cc1c(N)sc2c(F)ccc(-c3c(C(F)(F)F)cc4c(N5CC6CCC(C5)N6)nc(OCC5CCCCC5)nc4c3F)c12 [Compound 2] |  | > 10 µM | > 10 µM | > 10 µM | > 10 µM |  |
| N#Cc1c(N)sc2c(F)ccc(-c3c(C(F)(F)F)cc4c(N5CC6CCC(C5)N6)nc(N5CCNC(=O)CC5)nc4c3F)c12 [Compound 25] | 0.1 to 1 µM | 1 to 10 µM | > 10 µM | > 10 µM | 1 to 10 µM |  |
